Results on 6 compounds are retold here after paper PMC7872956, “Fucosidases from the human gut symbiont Ruminococcus gnavus” (Cellular and Molecular Life Sciences: CMLS, 2020).

The target of assay [1] is T1, GH29 fucosidase E1_10125 (Mediterraneibacter gnavus, UniProt A0A6N3BKT0, D236A).
T1 construct: gene hypBA2
T1 sequence (A0A6N3BKT0 35-583 D236A): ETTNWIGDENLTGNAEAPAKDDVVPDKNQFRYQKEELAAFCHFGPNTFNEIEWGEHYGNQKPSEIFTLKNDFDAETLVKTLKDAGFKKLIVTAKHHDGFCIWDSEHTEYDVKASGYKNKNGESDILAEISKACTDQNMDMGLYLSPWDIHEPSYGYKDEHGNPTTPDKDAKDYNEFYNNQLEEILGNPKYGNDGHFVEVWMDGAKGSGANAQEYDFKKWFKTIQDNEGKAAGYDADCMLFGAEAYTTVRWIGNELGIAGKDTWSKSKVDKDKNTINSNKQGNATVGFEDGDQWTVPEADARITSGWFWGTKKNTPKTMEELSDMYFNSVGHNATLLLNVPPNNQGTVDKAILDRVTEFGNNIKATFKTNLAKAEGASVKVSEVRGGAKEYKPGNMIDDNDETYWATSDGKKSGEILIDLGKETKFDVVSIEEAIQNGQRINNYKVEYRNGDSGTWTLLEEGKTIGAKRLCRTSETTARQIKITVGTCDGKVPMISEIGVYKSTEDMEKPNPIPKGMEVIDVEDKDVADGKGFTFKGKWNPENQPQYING
The assay can be described thus: STD NMR binding epitope mapping.

In assay [2] the target is T2, GH29 fucosidase E1_10125 (Mediterraneibacter gnavus, UniProt A0A6N3BKT0, D236A).
T2 construct: gene hypBA2
As to the kind of experiment: ITC; also STD NMR. The format is binding. Background: In ITC the heat of successive injections is recorded.

Assay [3] concerns the target T1, GH29 fucosidase E1_10125. As to the kind of experiment: X-ray crystal structure ([…] Å) and ITC. It counts as binding.

Usually Kd stands for the constant that tells how readily two partners part at equilibrium. The low end stands for higher affinity, the high end for lower affinity.

Take `C[C@@H]1O[C@@H](O[C@H]2[C@H](O[C@@H]3O[C@H](CO)[C@H](O)[C@H](O)[C@H]3O)[C@@H](CO)OC(O)[C@@H]2O)[C@@H](O)[C@H](O)[C@@H]1O` (stereo partly drawn) [3FL]: the “STD NMR binding epitope mapping” value in assay [1] is “The enzyme intimately recognized the three sugar residues constituting 3FL and LeA”. In assay [2], `CC(=O)N[C@H]1C(O)O[C@H](CO)[C@@H](O[C@@H]2O[C@H](CO)[C@H](O)[C@H](O[C@H]3O[C@H](CO)[C@H](O)[C@H](O)[C@H]3O)[C@H]2O)[C@@H]1O[C@@H]1O[C@@H](C)[C@@H](O)[C@@H](O)[C@@H]1O` (stereo partly drawn) [αGal-LeX, α1–3Gal-Lewis X] returned a Kd of 47.1 ± 5.6 µM. The same measure, in the same setting: the value for `CC(=O)N[C@H]1C(O)O[C@H](CO)[C@@H](O[C@@H]2O[C@H](CO)[C@H](O)[C@H](O)[C@H]2O)[C@@H]1O[C@@H]1O[C@@H](C)[C@@H](O)[C@@H](O)[C@@H]1O` (stereo partly drawn) [LeX, Lewis X] was 51.4 ± 1.93 µM. With `C[C@@H]1OC(O)[C@@H](O)[C@H](O)[C@@H]1O` (stereo partly drawn) [Fuc, L-fucose], binding in assay [3] was put at a Kd of 21.7 µM. `CC(=O)N[C@H]1[C@H]([C@H](O)[C@H](O)CO)O[C@@](O[C@H]2[C@@H](O)[C@@H](CO)O[C@@H](O[C@H]3[C@H](O[C@@H]4O[C@@H](C)[C@@H](O)[C@@H](O)[C@@H]4O)[C@@H](NC(C)=O)C(O)O[C@@H]3CO)[C@@H]2O)(C(=O)O)C[C@@H]1O` (stereo partly drawn) [sLeX, 3′-Sialyl Lewis X] displayed a Kd in assay [2] of 3.59 ± 0.48 µM. In the case of `CC(=O)N[C@H]1C(O)O[C@H](CO)[C@@H](O[C@@H]2O[C@@H](C)[C@@H](O)[C@@H](O)[C@@H]2O)[C@@H]1O[C@@H]1O[C@H](CO)[C@H](O)[C@H](O)[C@H]1O` (stereo partly drawn) [LeA, Lewis A], in assay [1], the “STD NMR binding epitope mapping” value was “The enzyme intimately recognized the three sugar residues constituting 3FL and LeA”.
